Assay results from paper PMC7469199, “Immunosuppressive Activities of Novel PLA2 Inhibitors from Xenorhabdus hominickii, an Entomopathogenic Bacterium” (Insects, 2020).
Where two headings read alike, the source gives them in different places.

Experiments:
[1] = tested on: hemocyte phagocytosis of S. exigua; test: Phagocytosis assay with FITC-labeled E. coli in L5 larvae; format: in vivo, Spodoptera exigua; conditions: for Median Inhibitory Concentration (IC50), Phagocytosis: injected into L5 larvae with FITC-labeled E. coli
Experimental: For in vivo phagocytosis assay, test chemical (1 µL) and FITC-labeled E. coli (5 µL, 5 × 10^4 cells/µL) were injected to L5 larva. Hemolymph (50 µL) was collected at 15 min after injection and mixed with 50 µL of ice cold ACB. After centrifugation at 700 × g for 3 min at 4 °C, the supernatant plasma was replaced with 100 µL of TC-100 insect cell culture medium (Welgene, Daegu, Korea). Hemocyte suspension (10 µL) was placed onto a slide and over laid with 10 µL glycerol (50%, v/v). Hemocytes undergoing phagocytosis were determined by fluorescence-emitting cells under a fluorescence microscope (Leica, Wetzlar, Germany) at 40× magnification. For in vitro phagocytosis, hemocyte suspension and labeled bacteria mixture (30 µL) were incubated in a dark place for 1 h at room temperature. Hemocytes were then washed three times with PBS by centrifugation at 700× g for 2 min at 4 °C and finally resuspended in TC-100 medium. This hemocyte suspension was observed under the fluorescence microscope in FITC or DIC mode after forming monolayers on glass slides.

secretory PLA2 (sPLA2) = test: Secretory PLA2 (sPLA2) activity; format: biochemical, Spodoptera exigua; conditions: for Median Inhibitory Concentrations (IC50), sPLA2: S. exigua, synthetic compounds
Experimental: (§1) To characterize PLA2 inhibition by test chemicals, activities of two different PLA2s [secretory PLA2 (sPLA2) and cytosolic PLA2 (cPLA2)] were assessed with methods described by Vatanparast et al..

rabbits = conditions: cited from earlier work
[2] = tested on: hemocyte PLA2 of S. exigua; test: Nonspecific (total) hemocyte PLA2 activity, pyrene-labeled phospholipid fluorometric assay; format: biochemical, Spodoptera exigua; conditions: for Median Inhibitory Concentrations (IC50), Total PLA2: hemocyte extract of S. exigua L5 larvae, synthetic compounds
Experimental: Hemocyte PLA2 activity was fluorometrically determined with a pyrene-labeled phospholipid substrate using a spectrofluorometer (VICTOR multi-label plate reader, PerkinElmer, Waltham, MA, USA) at excitation and emission wavelengths of 345 and 398 nm, respectively. For measuring PLA2 activity, hemolymph was collected from ~10 L5 larvae. Hemocytes and plasma were separated by centrifugation at 800× g for 3 min at 4 °C. Hemocytes were then homogenized in 500 µL of PBS with a polytron (Ultra-Turrax T8, Ika Laboratory, Funkentshort, Germany). After centrifugation at 14,000× g for 5 min at 4 °C, protein concentration of the supernatant was determined by Bradford assay using bovine serum albumin (BSA) as the standard. The reaction mixture was prepared in a 96-well microplate by adding 129 μL of 50 mM Tris buffer (pH 7.0), 2 μL of 1 M CaCl2, and 2 μL of 10% BSA into each well. A sample solution consisted of 5 μL of test bacterial metabolites and 10 μL of hemocyte enzyme extract ([…]). The plate was then incubated at room temperature for 30 min. Enzyme reaction was then initiated by adding pyrene-labeled PL substrate (2 μL) to the reaction mixture.

Sf9 cells = test: Cytotoxicity test (MTT); format: cell-based; conditions: for Cytotoxicity (MIC, minimum inhibitory concentration): MTT, 24 h at 28 °C
Experimental: Cytotoxicity of each secondary metabolite was evaluated by 3-(4,5 dimethylthiazol-2-yl)-2,5-diphenyl tetrazolium bromide (MTT) assay according to the method described by Mollah et al.. with a slight modification. Briefly, Sf9 cells (1.2 × 10^4 cells in 200 μL of TC-100 medium) were seeded into each 96-well. After adding each test chemical (2.5 μL in DMSO), the plate was incubated at 28 °C for 24 h. Control cells were treated with 2.5 μL of DMSO. After 24 h incubation, 10 μL of MTT (5 mg/mL in PBS) was added to each well and cells were cultured for another 4 h at 28 °C. Formazan granules formed in viable cells were dissolved in 50 μL of DMSO. Absorbance was then measured at 540 nm using a microplate reader (Victor Multilabel Plate Reader, PerkinElmer, Waltham, MA, USA).

[3] = tested on: hemocyte nodule formation; test: Nodulation assay after E. coli injection in L5 larvae; format: in vivo, Spodoptera exigua; conditions: for Median Inhibitory Concentration (IC50), Nodulation: injected into L5 larvae with E. coli, nodules counted after 8 h
Experimental: To assess nodule formation, immune challenge was performed by injecting 3 µL of Escherichia coli Top10 (10^4 cells/larva) (Invitrogen, Madison, WI, USA) through the abdominal proleg of L5 larvae using a microsyringe (Hamilton, Reno, NV, USA). After incubating at 25 °C for 8 h, test insects were dissected to count the number of melanized nodules under a stereo microscope (Stemi SV11, Zeiss, Jena, Germany) at 50× magnification. For chemical test, 1 µL aliquot of test chemical at different concentrations was injected into each larva along with E. coli. AA was injected at 10 μg per larva. Each treatment was independently replicated five times.

S. exigua larvae [4] = test: Feeding toxicity, leaf-dipping method; format: in vivo, Spodoptera exigua; conditions: for Insecticidal Activities, Feeding: median lethal concentration by Probit analysis, leaf-dipping
Experimental: (§2) For the virulence test of X. hominickii, 24 h-cultured cells (10^8 cfu/mL) were diluted with sterile PBS. After surface sterilization with 95% ethanol, each L5 larva was injected with 1 µL of test compound (1 µg/larva) along with bacterial suspension (10^2 cfu/larva). Injection was performed through the first abdominal proleg using a micro syringe. Injected larvae were incubated at room temperature individually in 9 cm Petri dishes. For oral toxicity assay of B. thuringiensis, a small piece (2 × 2 cm) of Chinese cabbage was dipped in 500 ppm of Bt or a mixture of Bt (500 ppm) with 500 ppm of test chemical for 5 min. After a brief (5 min) drying under a dark condition, the treated leaf was supplied to individual test larva in 9 cm Petri dish for 24 h at room temperature. After 24 h, larvae were fed with fresh cabbage leaves. Each treatment was replicated three times with 10 larvae per replication. […] Larvae were considered dead if they were unable to move in a coordinated manner when prodded with a blunt probe.
(§3) All data for continuous variables were subjected to one-way analysis of variance (ANOVA) using PROG GLM in SAS program. Mortality data were subjected to arcsine transformation and used for ANOVA. Means were compared with the least significant difference (LSD) test at Type I error of 0.05. Median toxicity values such as median lethal dose (LD50), median lethal concentration (LC50), median lethal time (LT50), and median inhibition concentrations (IC50) were calculated by Probit analysis using EPA Probit Analysis Program, ver. 1.5 (U.S. Environmental Protection Agency, Washington, DC, USA).
These compounds were also tested for their feeding toxicities using a leaf-dipping method.

rats = conditions: cited from earlier work
cytosolic PLA2 (cPLA2) = test: Cytosolic PLA2 (cPLA2) activity; format: biochemical, Spodoptera exigua; conditions: for Median Inhibitory Concentrations (IC50), cPLA2: S. exigua, synthetic compounds
Experimental: as §1

S. exigua larvae [5] = test: Insecticidal activity by injection; format: in vivo, Spodoptera exigua; conditions: for Insecticidal Activities, Injection: median lethal dose by Probit analysis, S. exigua larvae
Experimental: as §3, with “USA). […]” for “USA).”

mushroom tyrosinase = biological target: mushroom tyrosinase; design: method as in PMID 14714727; conditions: cited from earlier work
S. exigua larvae [6] = test: Effect on pathogenicity of X. hominickii (co-injection); format: in vivo, Spodoptera exigua; conditions: L5 larvae injected with Xh 10^2 cfu/larva along with inhibitor (5 µg/larva Fig. 7A; 2 µg/larva Fig. S6); 4 days after treatment
Experimental: as §2, with “After surface sterilization with 95% ethanol, each L5 larva was injected with 1 µL of test compound (1 µg/larva) along with bacterial suspension (10^2 cfu/larva).” left out

S. exigua larvae [7] = test: Effect on pathogenicity of Bacillus thuringiensis (oral, leaf dipping); format: in vivo, Spodoptera exigua; conditions: cabbage leaf dipped in Bt 500 ppm mixed with inhibitor 500 ppm; 4 days after treatment
Experimental: as §2

mammals = conditions: oral administration; cited from earlier work
[8] = reference not printed with the value, next sentence cites ref 48

Row | Compound | Median Inhibitory Concentration (IC50), Phagocytosis [1] | Median Inhibitory Concentrations (IC50), sPLA2 (secretory PLA2 (sPLA2)) | Median Inhibitory Concentrations (IC50), Total PLA2 [2] | Cytotoxicity (MIC, minimum inhibitory concentration) (Sf9 cells) | Median Inhibitory Concentration (IC50), Nodulation [3] | Insecticidal Activities, Feeding (S. exigua larvae [4]) | Median Inhibitory Concentrations (IC50), cPLA2 (cytosolic PLA2 (cPLA2)) | Insecticidal Activities, Injection (S. exigua larvae [5]) | further results
1 | CCCCNCCCC [DBA, dibutylamine] | 5.0 ± 0.58 c ng/larva | 0.11 ± 0.02 de µg/mL | 0.18 ± 0.02 c µg/mL | 0.80 ± 0.03 b µg/mL | 0.71 ± 0.05 d ng/larva | 2969.46 ± 50.56 c µg/mL | 0.19 ± 0.02 c µg/mL | 38.77 ± 3.26 b µg/larva | Acute dermal toxicity (LD50) (rabbits; [8]): 7680 mg/kg; Acute oral toxicity (LD50) (rats; [8]): 1890 mg/kg
2 | CCCCC(CC)COC(=O)c1ccccc1C(=O)OCC(CC)CCCC (centres unmarked) [BEP, bis(2-ethylhexyl) phthalate] | 1.50 ± 0.22 d ^2 ng/larva | 0.07 ± 0.01 ef µg/mL | 0.17 ± 0.01 cd ^2 µg/mL | 0.30 ± 0.01 d ^3 µg/mL | 1.0 ± 0.11 c ng/larva | 2679.58 ± 60.58 µg·days/mL | 0.09 ± 0.01 µg·days/mL | 34.88 ± 2.08 bc µg/larva | Potency for inhibiting sPLA2 (in words) (secretory PLA2 (sPLA2); based on IC50 values): highly potent; Acute toxicity, dermal (rabbits; dermal application): 24 g/kg; Acute toxicity, oral (rats; oral administration): 30 g/kg
3 | N#Cc1ccc(C(=O)O)cc1 [4-cyanobenzoic acid] |  |  |  |  |  |  |  |  | IC50 (mushroom tyrosinase; diphenolase activity of mushroom tyrosinase, read-out: IC50 for diphenolase): 1400 µM; IC50 (mushroom tyrosinase; monophenolase activity of mushroom tyrosinase, read-out: IC50 for monophenolase): 2450 µM
4 | O=C1NC(=O)c2ccccc21 [PM, phthalimide] | 0.40 ± 0.05f ng/larva | 0.17 ± 0.01 µg·days/mL | 0.05 ± 0.007 e µg/mL | 0.1 ± 0.01 f µg/mL | 0.20 ± 0.02 f ng/larva | 2150.66 ± 50.07 f µg/mL | 0.04 ± 0.003 f µg/mL | 22.11 ± 2.69 d µg/larva | Inhibition of phagocytosis (in words) ([1]; S. exigua hemocytes): highly potent; Effect on X. hominickii pathogenicity / insecticidal activity (S. exigua larvae [6]): significantly (p < 0.05) increased; Effect on B. thuringiensis insecticidal activity (S. exigua larvae [7]): significantly (p < 0.05) increased; Inhibitory activity against hemocyte PLA2 (in words) ([2]; S. exigua hemocyte PLA2, extracts, fractions or synthetic compounds): most potent; Concentration inducing cytotoxicity (Sf9 cells): less than 1 µg/mL; Acute mammalian toxicity LD50 (mammals): > 5000 mg/kg; Inhibition of nodule formation (in words) ([3]; S. exigua L5 larvae, E. coli challenge): high potency; Feeding (oral) toxicity (in words) (S. exigua larvae [4]; leaf-dipping method): most potent; Potency for inhibiting cPLA2 (in words) (cytosolic PLA2 (cPLA2); based on IC50 values): highly potent; Killing of larvae after injection (in words) (S. exigua larvae [5]; individually injected to S. exigua larvae): most potent
